Key:
Cytochrome P450 1A2 = target: T1, Cytochrome P450 1A2 (Homo sapiens, UniProt P05177); assay: Inhibition of human CYP1A2 bound to yeast microsomal membrane using 3-cyano-7-ethoxycoumarin as substrate after 10 mins by fluorescence assay
T1 sequence (P05177 whole entry): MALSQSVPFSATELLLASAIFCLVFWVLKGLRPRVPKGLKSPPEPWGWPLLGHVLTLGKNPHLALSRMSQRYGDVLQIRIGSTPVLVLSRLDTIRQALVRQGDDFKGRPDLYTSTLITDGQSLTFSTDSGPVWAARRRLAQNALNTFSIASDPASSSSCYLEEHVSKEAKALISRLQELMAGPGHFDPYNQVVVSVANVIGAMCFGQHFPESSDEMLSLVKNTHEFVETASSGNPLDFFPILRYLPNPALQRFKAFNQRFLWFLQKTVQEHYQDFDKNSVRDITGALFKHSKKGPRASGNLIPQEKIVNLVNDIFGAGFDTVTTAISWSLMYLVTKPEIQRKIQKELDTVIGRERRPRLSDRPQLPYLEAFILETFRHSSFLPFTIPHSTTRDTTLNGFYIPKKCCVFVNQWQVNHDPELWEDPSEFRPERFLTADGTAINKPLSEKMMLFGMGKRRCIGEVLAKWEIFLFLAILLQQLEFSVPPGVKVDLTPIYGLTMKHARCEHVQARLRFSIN

Cytochrome P450 1A1 [1] = target: T2, Cytochrome P450 1A1 (Homo sapiens, UniProt P04798); assay: Inhibition of human CYP1A1 expressed in HEK293 cells using fluorogenic substrate 7-ethoxyresorufin as substrate preincubated for 30 mins followed by substrate addition measured for 60 mins by fluorescence assay; type: cell-based
T2 sequence (P04798 whole entry): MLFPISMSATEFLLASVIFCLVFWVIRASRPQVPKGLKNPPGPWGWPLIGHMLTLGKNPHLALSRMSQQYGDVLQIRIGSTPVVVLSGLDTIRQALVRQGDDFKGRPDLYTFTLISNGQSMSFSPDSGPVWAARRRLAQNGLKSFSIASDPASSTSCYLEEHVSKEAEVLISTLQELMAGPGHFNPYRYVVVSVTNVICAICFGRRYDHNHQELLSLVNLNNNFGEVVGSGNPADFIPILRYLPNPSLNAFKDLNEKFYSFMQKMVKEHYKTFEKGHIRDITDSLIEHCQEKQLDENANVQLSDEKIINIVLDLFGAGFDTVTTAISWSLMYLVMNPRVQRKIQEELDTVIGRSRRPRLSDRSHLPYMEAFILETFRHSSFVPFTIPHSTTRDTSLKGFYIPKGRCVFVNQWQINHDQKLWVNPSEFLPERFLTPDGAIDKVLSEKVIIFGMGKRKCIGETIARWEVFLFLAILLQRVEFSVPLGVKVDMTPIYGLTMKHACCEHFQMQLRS

Cytochrome P450 2C19 [2] = target: T3, Cytochrome P450 2C19 (Homo sapiens, UniProt P33261); assay: Inhibition of human CYP2C19 bound to yeast microsomal membrane using 3-cyano-7-ethoxycoumarin as substrate after 10 mins by fluorescence assay; type: ADME
Cytochrome P450 3A4 = Cytochrome P450 3A4 (Homo sapiens, UniProt P08684); assay: Inhibition of human CYP3A4 bound to yeast microsomal membrane using dibenzylfluorescein as substrate after 10 mins by fluorescence assay; type: ADME
Cytochrome P450 2D6 = Cytochrome P450 2D6 (Homo sapiens, UniProt P10635); assay: Inhibition of human CYP2D6 bound to yeast microsomal membrane using 7-ethoxy-methyloxy-3-cyanocoumarin as substrate after 10 mins by fluorescence assay; type: ADME
[3] = target: T4, Aryl hydrocarbon receptor (Homo sapiens, UniProt P35869); assay: Antagonist activity at human AhR expressed in Saccharomyces cerevisiae W303-1A (ATCC 208352) transformed with an episomal plasmid containing a minimal CYC1 promoter, with a concatemer of five XRE enhancer sequences, linked to eGFP reporter gene and co-expressing ARNT assessed as inhibition of B[a]P agonist induced XRE-driven eGFP expression by measuring eGFP units at 20 uM after 18 hrs by …
T4 sequence (P35869 whole entry): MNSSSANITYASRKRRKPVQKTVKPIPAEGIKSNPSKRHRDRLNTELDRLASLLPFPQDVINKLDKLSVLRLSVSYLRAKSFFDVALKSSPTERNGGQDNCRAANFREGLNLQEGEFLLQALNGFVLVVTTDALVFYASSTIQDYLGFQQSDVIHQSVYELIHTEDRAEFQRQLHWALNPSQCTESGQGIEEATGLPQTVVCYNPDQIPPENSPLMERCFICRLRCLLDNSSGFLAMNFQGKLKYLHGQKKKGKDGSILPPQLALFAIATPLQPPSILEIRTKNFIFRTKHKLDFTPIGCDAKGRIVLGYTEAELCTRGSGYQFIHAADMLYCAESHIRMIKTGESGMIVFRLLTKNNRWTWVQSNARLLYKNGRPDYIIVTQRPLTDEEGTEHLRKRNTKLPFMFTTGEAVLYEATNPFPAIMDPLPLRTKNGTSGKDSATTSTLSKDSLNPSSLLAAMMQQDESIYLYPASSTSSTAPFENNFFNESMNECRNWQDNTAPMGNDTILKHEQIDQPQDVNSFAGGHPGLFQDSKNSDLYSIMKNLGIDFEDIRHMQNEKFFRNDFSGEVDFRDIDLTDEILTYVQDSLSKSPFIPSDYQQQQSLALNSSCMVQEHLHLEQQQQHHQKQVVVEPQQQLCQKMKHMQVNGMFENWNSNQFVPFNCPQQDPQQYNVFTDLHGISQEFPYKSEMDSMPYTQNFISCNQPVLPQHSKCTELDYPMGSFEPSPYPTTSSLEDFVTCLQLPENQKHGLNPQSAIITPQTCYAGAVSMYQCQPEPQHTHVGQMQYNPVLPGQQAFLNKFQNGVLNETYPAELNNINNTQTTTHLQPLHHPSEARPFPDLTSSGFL

Cytochrome P450 1A1 [4] = target: T2, Cytochrome P450 1A1; assay: Inhibition of human CYP1A1 bound to yeast microsomal membrane using 7-ethoxyresorufin as substrate after 10 mins by fluorescence assay
[5] = target: T4, Aryl hydrocarbon receptor; assay: Antagonist activity at human AhR expressed in Saccharomyces cerevisiae W303-1A (ATCC 208352) transformed with an episomal plasmid containing a minimal CYC1 promoter, with a concatemer of five XRE enhancer sequences, linked to eGFP reporter gene and co-expressing ARNT assessed as inhibition of B[a]P agonist induced XRE-driven eGFP expression by measuring eGFP units at 1 uM after 18 hrs by …
Cytochrome P450 1A1 [6] = target: T2, Cytochrome P450 1A1; assay: Inhibition of human CYP1A1 transfected in HEK293 cells assessed as protection against CYP1A1 mediated B[a]P toxicity at 20 uM by MTT assay; type: cell-based; settings: hek293, 20 µM
Cytochrome P450 2C19 [7] = target: T3, Cytochrome P450 2C19; assay: Inhibition of human CYP2C19 expressed in HEK293 cells using fluorogenic 3-cyano-7-ethoxycoumarin as substrate preincubated for 30 mins followed by substrate addition measured for 60 mins by fluorescence assay; type: ADME, cell-based
[8] = Selectivity ratio of IC50 for human CYP2C19 expressed in HEK293 cells to IC50 for human CYP1A1 expressed in HEK293 cells
[9] = Selectivity ratio of IC50 for human CYP3A4 expressed in HEK293 cells to IC50 for human CYP1B1 expressed in HEK293 cells
[10] = Selectivity ratio of IC50 for human CYP2C9 expressed in HEK293 cells to IC50 for human CYP1A2 expressed in HEK293 cells
Homo sapiens [11] = species on record: Homo sapiens; assay: Selectivity ratio of IC50 for human CYP2D6 bound to yeast microsomal membrane to IC50 for human CYP1A1 bound to yeast microsomal membrane
[12] = Selectivity ratio of IC50 for human CYP2C9 expressed in HEK293 cells to IC50 for human CYP1A1 expressed in HEK293 cells
Homo sapiens [13] = species on record: Homo sapiens; assay: Selectivity ratio of IC50 for human CYP2C9 bound to yeast microsomal membrane to IC50 for human CYP1A2 bound to yeast microsomal membrane

T3 sequence (P33261 whole entry): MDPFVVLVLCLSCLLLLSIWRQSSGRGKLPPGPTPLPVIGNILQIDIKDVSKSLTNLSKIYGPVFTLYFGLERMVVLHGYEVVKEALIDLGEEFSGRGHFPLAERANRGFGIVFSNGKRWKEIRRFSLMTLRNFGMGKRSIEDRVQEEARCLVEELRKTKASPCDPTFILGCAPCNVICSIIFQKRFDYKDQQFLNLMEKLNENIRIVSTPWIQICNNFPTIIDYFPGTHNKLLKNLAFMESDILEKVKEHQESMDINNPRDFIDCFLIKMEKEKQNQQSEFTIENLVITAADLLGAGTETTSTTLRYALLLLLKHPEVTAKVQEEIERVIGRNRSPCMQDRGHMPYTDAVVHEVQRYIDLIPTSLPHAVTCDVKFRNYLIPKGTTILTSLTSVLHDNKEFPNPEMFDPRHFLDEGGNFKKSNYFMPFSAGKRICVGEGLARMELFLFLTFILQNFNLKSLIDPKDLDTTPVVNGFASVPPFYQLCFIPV
Cytochrome P450 2D6, sequence (P10635 whole entry): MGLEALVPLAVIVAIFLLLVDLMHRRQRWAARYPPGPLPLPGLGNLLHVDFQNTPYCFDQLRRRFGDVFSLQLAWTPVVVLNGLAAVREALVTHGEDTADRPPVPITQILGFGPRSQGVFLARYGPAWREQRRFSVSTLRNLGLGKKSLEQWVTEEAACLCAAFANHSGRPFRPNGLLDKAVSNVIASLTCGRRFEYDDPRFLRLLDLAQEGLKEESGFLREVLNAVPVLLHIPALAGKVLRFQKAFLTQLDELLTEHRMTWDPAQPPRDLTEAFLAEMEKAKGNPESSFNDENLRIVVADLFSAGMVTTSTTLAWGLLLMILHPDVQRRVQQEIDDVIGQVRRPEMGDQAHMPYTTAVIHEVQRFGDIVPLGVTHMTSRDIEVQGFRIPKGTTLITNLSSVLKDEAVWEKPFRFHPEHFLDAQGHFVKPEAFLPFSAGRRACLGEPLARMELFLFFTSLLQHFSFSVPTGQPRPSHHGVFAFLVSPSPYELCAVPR
Cytochrome P450 3A4, sequence (P08684 whole entry): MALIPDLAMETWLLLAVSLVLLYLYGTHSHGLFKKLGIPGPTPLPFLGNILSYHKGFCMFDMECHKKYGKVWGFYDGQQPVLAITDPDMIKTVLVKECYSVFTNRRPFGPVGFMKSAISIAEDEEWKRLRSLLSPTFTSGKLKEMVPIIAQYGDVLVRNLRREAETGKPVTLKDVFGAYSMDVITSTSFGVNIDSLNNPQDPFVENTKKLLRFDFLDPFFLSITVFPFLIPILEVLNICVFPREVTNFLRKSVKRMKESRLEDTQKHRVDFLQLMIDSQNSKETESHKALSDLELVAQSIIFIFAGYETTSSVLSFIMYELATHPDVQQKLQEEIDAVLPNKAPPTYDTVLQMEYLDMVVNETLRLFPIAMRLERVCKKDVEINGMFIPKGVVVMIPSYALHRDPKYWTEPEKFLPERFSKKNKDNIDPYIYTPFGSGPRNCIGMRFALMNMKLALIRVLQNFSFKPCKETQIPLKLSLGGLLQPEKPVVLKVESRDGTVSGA

| IC50 (Cytochrome P450 1A2) | IC50 (Cytochrome P450 1A1 [1]) | IC50 (Cytochrome P450 2C19 [2]) | IC50 (Cytochrome P450 3A4) | IC50 (Cytochrome P450 2D6) | Activity [3] | IC50 (Cytochrome P450 1A1 [4]) | Activity [5] | IC50 (Cytochrome P450 2C19 [7]) | Structure (SMILES) | inhibition (INH) (Cytochrome P450 1A1 [6]) | Ratio IC50 [8] | Ratio IC50 [9] | Ratio IC50 [10] | Ratio IC50 (Homo sapiens [11]) | Ratio IC50 [12] | Ratio IC50 (Homo sapiens [13]) |
| --- | --- | --- | --- | --- | --- | --- | --- | --- | --- | --- | --- | --- | --- | --- | --- | --- |
| > 20 µM | > 20 µM | > 20 µM | > 20 µM | 16 µM | 955 U | > 20 µM | 955 U | > 20 µM | O=C(/C=C/c1ccc(OC(F)(F)F)cc1)c1ccc[nH]1 | Not Active |  |  |  |  |  |  |
| 1.1 µM | 1.2 µM | > 20 µM | > 20 µM | 20 µM | 120 U | 0.9 µM | 600 U | > 10 µM | COc1ccccc1/C=C/C(=O)c1ccc[nH]1 |  | >20 | >20 | >20 | > 20 | >20 | > 20 |
| 0.7 µM | > 20 µM | > 20 µM | > 20 µM | 12 µM | 285 U | 9.1 µM | 920 U | > 10 µM | O=C(/C=C/c1ccccc1Cl)c1ccc[nH]1 | Not Active | >20 | >20 | >20 | > 20 | >20 | > 20 |
